Experimental findings from PubChem BioAssay AID256 (DTP/NCI, 2004) are described below.

This assay relates to CD2F1 mice, L1210 leukemia ip, survival T/C. Briefly: NCI In Vivo Anticancer Drug Screen. Data for tumor model L1210 Leukemia (intraperitoneal) in CD2F1 (CDF1) mice. Particulars: higher = longer survival. In a few lines: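 Implant tumor; dose compound or vehicle; measure endpoint in both groups; report treated divided by control.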
The mark [1] stands for this setting: endpoint: mean survival time, dose: 50.0 mg/kg/injection, schedule: Q01DX009 (ip), vehicle: saline with Tween-80.
Setting [2] is: endpoint: mean survival time, dose: 100.0 mg/kg/injection, schedule: Q04DX003 (ip), vehicle: saline with Tween-80.

Values joined by “and” are separate entries in the source; they are usually repeats but may differ in a detail not shown here. Equal values may be shown once. Toxic doses and inconclusive results are not listed.

Take `N#CC1(C2(C#N)CCCCC2)CCCCC1`: the T/C (endpoint: mean survival time, dose: 100.0 mg/kg/injection, schedule: Q01DX001 (ip), vehicle: Klucel (hydroxypropylcellulose) (HPC)) is 116 % of control; the T/C (endpoint: mean survival time, dose: 200.0 mg/kg/injection, schedule: Q01DX001 (ip), vehicle: Klucel (hydroxypropylcellulose) (HPC)) was 92 % of control; the T/C (endpoint: mean survival time, dose: 400.0 mg/kg/injection, schedule: Q01DX001 (ip), vehicle: Klucel (hydroxypropylcellulose) (HPC)) is 100 % of control.
Regarding `O=[N+]([O-])c1ccc(OC(=S)c2ccccc2)cc1`, the T/C (endpoint: mean survival time, dose: 100.0 mg/kg/injection, schedule: Q04DX002 (ip), vehicle: saline with Tween-80) was 96 % of control and the T/C (endpoint: mean survival time, dose: 200.0 mg/kg/injection, schedule: Q04DX002 (ip), vehicle: saline with Tween-80) is 96 % of control.
`CN(C)c1ccc2nc3ccc(=O)cc-3sc2c1`: the T/C reads like this: (endpoint: mean survival time, dose: 100.0 mg/kg/injection, schedule: Q01DX009 (ip), vehicle: Klucel (hydroxypropylcellulose) (HPC)) 98 % of control; (endpoint: mean survival time, dose: 200.0 mg/kg/injection, schedule: Q01DX009 (ip), vehicle: Klucel (hydroxypropylcellulose) (HPC)) 101 % of control; (endpoint: mean survival time, dose: 400.0 mg/kg/injection, schedule: Q01DX009 (ip), vehicle: Klucel (hydroxypropylcellulose) (HPC)) 103 % of control.
For `[N-]=[N+]=CC(=O)CCC(N)C(=O)O` (configuration not stated), the T/C is 119 % of control (endpoint: mean survival time, dose: 0.03 mg/kg/injection, schedule: Q01DX009 (ip), vehicle: saline); 116 % of control (endpoint: mean survival time, dose: 0.05 mg/kg/injection, schedule: Q01DX009 (ip), vehicle: saline); 107 % of control (endpoint: mean survival time, dose: 0.05 mg/kg/injection, schedule: Q01DX009 (oral), vehicle: saline); 117 % of control (endpoint: mean survival time, dose: 0.05 mg/kg/injection, schedule: Q01DX009 (sc), vehicle: saline); 115 % of control (endpoint: mean survival time, dose: 0.1 mg/kg/injection, schedule: Q03DX003 (ip), vehicle: saline); 117 % of control (endpoint: mean survival time, dose: 0.1 mg/kg/injection, schedule: Q04DX003 (ip), vehicle: saline). In addition, the T/C runs as follows: (endpoint: mean survival time, dose: 0.2 mg/kg/injection, schedule: Q01DX009 (oral), vehicle: saline) 116 % of control; (endpoint: mean survival time, dose: 0.2 mg/kg/injection, schedule: Q03DX003 (ip), vehicle: saline) 118 % of control; (endpoint: mean survival time, dose: 0.2 mg/kg/injection, schedule: Q04DX003 (ip), vehicle: saline) 123 % of control; (endpoint: mean survival time, dose: 0.4 mg/kg/injection, schedule: Q03HX024 (ip), vehicle: saline) 162 % of control; (endpoint: mean survival time, dose: 0.8 mg/kg/injection, schedule: Q01DX009 (sc), vehicle: saline) 90 % of control; (endpoint: mean survival time, dose: 0.8 mg/kg/injection, schedule: Q03HX024 (ip), vehicle: saline) 102 % of control. Moreover, the T/C runs as follows: (endpoint: mean survival time, dose: 1.6 mg/kg/injection, schedule: Q03HX024 (ip), vehicle: saline) 105 % of control; (endpoint: mean survival time, dose: 3.1 mg/kg/injection, schedule: Q03HX016 (ip), vehicle: saline) 119 % of control; (endpoint: mean survival time, dose: 6.25 mg/kg/injection, schedule: Q03HX008 (ip), vehicle: saline) 118 % of control; (endpoint: mean survival time, dose: 6.25 mg/kg/injection, schedule: Q04DX003 (ip), vehicle: saline) 156 % of control; (endpoint: mean survival time, dose: 25.0 mg/kg/injection, schedule: Q04DX003 (ip), vehicle: saline) 155 % of control; (endpoint: mean survival time, dose: 25.0 mg/kg/injection, schedule: Q08DX002 (ip), vehicle: saline) 150 % of control. Moreover, the T/C (endpoint: mean survival time, dose: 50.0 mg/kg/injection, schedule: Q01DX001 (ip), vehicle: saline) is 151 % of control; the T/C (endpoint: mean survival time, dose: 50.0 mg/kg/injection, schedule: Q04DX003 (ip), vehicle: saline) is 122 % of control; the T/C (endpoint: mean survival time, dose: 50.0 mg/kg/injection, schedule: Q08DX002 (ip), vehicle: saline) was 162 % of control; the T/C (endpoint: mean survival time, dose: 100.0 mg/kg/injection, schedule: Q01DX001 (ip), vehicle: saline) is 151 % of control; the T/C (endpoint: mean survival time, dose: 100.0 mg/kg/injection, schedule: Q01DX001 (oral), vehicle: saline) was 115 % of control; the T/C (endpoint: mean survival time, dose: 100.0 mg/kg/injection, schedule: Q08DX002 (ip), vehicle: saline) was 155 % of control. For the same molecule, the T/C by setting is: (endpoint: mean survival time, dose: 200.0 mg/kg/injection, schedule: Q01DX001 (oral), vehicle: saline) 88 % of control; (endpoint: mean survival time, dose: 200.0 mg/kg/injection, schedule: Q01DX001 (sc), vehicle: saline) 110 % of control; (endpoint: mean survival time, dose: 13.0 micrograms/kg/injection, schedule: Q01DX Z (ip), vehicle: saline) 96 % of control; (endpoint: mean survival time, dose: 25.0 micrograms/kg/injection, schedule: Q01DX Z (ip), vehicle: saline) 94 % of control; (endpoint: mean survival time, dose: 50.0 micrograms/kg/injection, schedule: Q01DX Z (ip), vehicle: saline) 100 % of control; (endpoint: mean survival time, dose: 93.7 micrograms/kg/injection, schedule: Q01DX009 (ip), vehicle: saline) 124 % of control. Further, the T/C was 119 % of control (endpoint: median survival time, dose: 0.06 mg/kg/injection, schedule: Q01DX009 (ip), vehicle: saline); 118 % of control (endpoint: median survival time, dose: 0.25 mg/kg/injection, schedule: Q01DX009 (ip), vehicle: saline); 98 % of control (endpoint: median survival time, dose: 0.39 mg/kg/injection, schedule: Q01DX009 (ip), vehicle: saline); 102 % of control (endpoint: median survival time, dose: 0.5 mg/kg/injection, schedule: Q01DX009 (ip), vehicle: saline); 94 % of control and 98 % of control (endpoint: median survival time, dose: 0.8 mg/kg/injection, schedule: Q01DX009 (ip), vehicle: saline); 152 % of control (endpoint: median survival time, dose: 2.5 mg/kg/injection, schedule: Q04DX003 (ip), vehicle: saline). The T/C was 153 % of control and 163 % of control (endpoint: median survival time, dose: 5.0 mg/kg/injection, schedule: Q04DX003 (ip), vehicle: saline); 167 % of control and 173 % of control (endpoint: median survival time, dose: 10.0 mg/kg/injection, schedule: Q04DX003 (ip), vehicle: saline); 184 % of control and 189 % of control (endpoint: median survival time, dose: 20.0 mg/kg/injection, schedule: Q04DX003 (ip), vehicle: saline); 195 % of control and 205 % of control (endpoint: median survival time, dose: 40.0 mg/kg/injection, schedule: Q04DX003 (ip), vehicle: saline); 114 % of control (endpoint: median survival time, dose: 100.0 mg/kg/injection, schedule: Q01DX001 (ip), vehicle: saline).
On to `C[C@@H]1C[C@@]2(C)[C@@H](CC[C@@H]3[C@@H]2CC[C@@]2(C)[C@H]3CC[C@]2(C)O)CC1=O`, for which the T/C reads like this: (endpoint: mean survival time, dose: 25.0 mg/kg/injection, schedule: Q01DX009 (ip), vehicle: saline with Tween-80) 95 % of control; under setting [1], 95 % of control; (endpoint: mean survival time, dose: 100.0 mg/kg/injection, schedule: Q01DX009 (ip), vehicle: saline with Tween-80) 94 % of control; under setting [2], 91 % of control.
Consider `COc1cc(C(=O)C=O)cc(OC)c1OC`, for which the T/C by setting is: under setting [1], 103 % of control; under setting [2], 109 % of control; (endpoint: mean survival time, dose: 200.0 mg/kg/injection, schedule: Q04DX003 (ip), vehicle: saline with Tween-80) 110 % of control.
On to `CC1CCC2CON(C#N)C2C1` (configuration not stated), for which the T/C was 109 % of control (endpoint: mean survival time, dose: 100.0 mg/kg/injection, schedule: Q04DX003 (ip), vehicle: Klucel (hydroxypropylcellulose) (HPC)); 101 % of control (endpoint: mean survival time, dose: 200.0 mg/kg/injection, schedule: Q04DX003 (ip), vehicle: Klucel (hydroxypropylcellulose) (HPC)); 101 % of control (endpoint: mean survival time, dose: 400.0 mg/kg/injection, schedule: Q04DX003 (ip), vehicle: Klucel (hydroxypropylcellulose) (HPC)).
On to `CC(=O)Nc1nc2ncc(/C=C/c3ccccc3)nc2c(=O)[nH]1`, for which the T/C by setting is: (endpoint: mean survival time, dose: 75.0 mg/kg/injection, schedule: Q01DX001 (ip), vehicle: other) 100 % of control; (endpoint: mean survival time, dose: 150.0 mg/kg/injection, schedule: Q01DX001 (ip), vehicle: other) 97 % of control.
With `NCCCNCCCCNC(=O)C(O)NC(=O)CC(O)CCCCN=C(N)N` (configuration not stated), the T/C was 161 % of control and 181 % of control (endpoint: median survival time, dose: 1.56 mg/kg/injection, schedule: Q01DX009 (ip), vehicle: saline); 162 % of control (endpoint: median survival time, dose: 3.0 mg/kg/injection, schedule: Q01DX009 (ip), vehicle: saline); 164 % of control and 168 % of control and 210 % of control (endpoint: median survival time, dose: 3.12 mg/kg/injection, schedule: Q01DX009 (ip), vehicle: saline); 207 % of control (endpoint: median survival time, dose: 6.0 mg/kg/injection, schedule: Q01DX009 (ip), vehicle: saline); 164 % of control and 191 % of control and 219 % of control (endpoint: median survival time, dose: 6.25 mg/kg/injection, schedule: Q01DX009 (ip), vehicle: saline); 219 % of control (endpoint: median survival time, dose: 12.0 mg/kg/injection, schedule: Q01DX009 (ip), vehicle: saline). Also, the T/C (endpoint: median survival time, dose: 12.5 mg/kg/injection, schedule: Q01DX009 (ip), vehicle: saline) is 173 % of control and 196 % of control and 217 % of control; the T/C (endpoint: median survival time, dose: 100.0 mg/kg/injection, schedule: Q01DX009 (ip), vehicle: saline) was 206 % of control and 235 % of control.
As for `CCCCCCCCOC(=O)C12Oc3ccc(-c4ccc5c(c4O)C(O)=C4C(=O)CC(C)C(O)C4(C(=O)OCCCCCCCC)O5)c(O)c3C(O)=C1C(=O)CC(C)C2O` (configuration not stated), the T/C was 97 % of control (endpoint: mean survival time, dose: 2.5 mg/kg/injection, schedule: Q01DX009 (ip), vehicle: saline with Tween-80); 97 % of control (endpoint: mean survival time, dose: 5.0 mg/kg/injection, schedule: Q01DX009 (ip), vehicle: saline with Tween-80); 97 % of control (endpoint: mean survival time, dose: 10.0 mg/kg/injection, schedule: Q01DX009 (ip), vehicle: saline with Tween-80).
